Where a name gives a salt, the structure may show the parent alone. Read-outs that look alike come from different tables or passages of the source.
Tests used:
Rats [1] = settings: ingestion, Goebel et al., 1982; cited from earlier work
[2] = Singh et al., 1991, cited from earlier work
Mice = settings: ingestion, Dorough et al., 1978; cited from earlier work
Heliothis virescens = settings: topical application in acetone; Walfenbarger and Guerra, 1972; cited from earlier work
[3] = test system: Musca domestica (house fly); settings: topical application in acetone, cited from earlier work
Helicoverpa zea = settings: topical application in acetone; Walfenbarger and Guerra, 1972; cited from earlier work
Rats [4] = experiment: Acute toxicity after ingestion by rats; assay type: in vivo; settings: rats and mice (Table 1)
Text: A comparison of the acute toxicity of the isomers and the metabolite endosulfan sulfate after ingestion by rats and mice is shown in Table 1. […] Most studies investigating the chronic toxicity of endosulfan in mammals have not differentiated between the isomers. An exception is the neurotoxic action of endosulfan that has been attributed to the alpha-isomer.

[5] = test system: GABA-gated chloride channel; settings: Abalis et al., 1985, 1986; Gant et al., 1987; cited from earlier work

| SMILES | LD50 (Rats [1]) [mg/kg] | susceptibility to photolysis relative to the alpha-isomer [2] | vulnerability to chemical hydrolysis relative to the alpha-isomer ([2]; neutral and alkali pH) | LD50 (Mice) [mg/kg] | LD50 (Heliothis virescens) | LD50 ([3]; Barnes and Ware, 1965) [µg/g] | LD50 ([3]; Lindquist and Dahm, 1957) [μg · fly^−1] | LD50 (Helicoverpa zea) [µg/g] | acute toxicity relative to the beta-isomer (Rats [4]) | potency at inhibiting GABA-induced chloride flux relative to the beta-isomer [5] |
| --- | --- | --- | --- | --- | --- | --- | --- | --- | --- | --- |
| O=S1OC[C@@H]2[C@H](CO1)[C@]1(Cl)C(Cl)=C(Cl)[C@]2(Cl)C1(Cl)Cl (stereo partly drawn) [beta-endosulfan] | 240 | over twice as susceptible | approximately 25% | 36 | 4960 µg/g | 9.0 | 0.19 | 4140 | – | – |
| O=S1(=O)OCC2C(CO1)C1(Cl)C(Cl)=C(Cl)C2(Cl)C1(Cl)Cl (stereo not shown) [endosulfan sulfate] | 76 | – | – | 8 | high* | 9.5 | – | 820 | approximately four fold higher | – |
| O=S1OC[C@@H]2[C@H](CO1)[C@@]1(Cl)C(Cl)=C(Cl)[C@]2(Cl)C1(Cl)Cl (stereo partly drawn) [alpha-endosulfan] | 76 | – | – | 11 | high* | 5.5 | 0.14 | 630 | approximately four fold higher | much more potent |

— patent US20040054010A1, “Endosulfan formulation and methods of use thereof” (priority 2000, published 2004)
